Experimental data taken from US20090215708A1, “Treatment of Sexual Dysfunction with Proton Pump Agonists” (priority 2008, published 2009).

What was measured:
[1] = test system: subject with sexual dysfunction related to penis size below the 10th percentile; test: Daily oral cinchomeronic acid in a subject with penis size below the 10th percentile; format: in vivo, human
Source text: A subject who has reported long-term sexual dysfunction related to a penis size below the 10th percentile is given an oral formulation of cinchomeronic acid, at a daily dose sufficient to maintain therapeutic blood levels of the agent.

[2] = test system: subject diagnosed with Female Sexual Arousal Disorder (FSAD); test: Daily oral fusicoccin in a subject with Female Sexual Arousal Disorder; format: in vivo, human; conditions: daily oral formulation
Source text: A subject who has been diagnosed with Female Sexual Arousal Disorder (FSAD) for over 6 months is given a daily oral formulation of fusicoccin, at a dose sufficient to maintain therapeutic blood levels of the agent. […] The use of this preparation is well accepted by both the subject and partner.

[3] = test system: proton pump (plasma membrane H+ ATPases); conditions: plants; cited from earlier work

SMILES	adverse side effects [1]	penile circumference and length compared to before treatment ([1]; two months after beginning treatment)	adverse side effects [2]	symptoms, including lubrication-swelling response during sexual activity ([2]; one week after beginning treatment)	proton pumping across the plasma membrane [3]
O=C(O)c1ccncc1C(=O)O [cinchomeronic acid, 3,4-dicarboxypyridine]	no adverse side effects	measurable increase			
C=CC(C)(C)OC[C@H]1O[C@H](O[C@@H]2C3=C([C@H](C)COC(C)=O)C[C@H](O)[C@]3(C)/C=C3/[C@@H](COC)CC[C@H]3[C@@H](C)[C@H]2O)[C@H](O)[C@@H](OC(C)=O)[C@@H]1O [fusicoccin]			without adverse side effects	significant improvement in symptoms	activate
